# Assay results: patent US11951094B2, “TLR2 modulator compounds, pharmaceutical compositions and uses thereof” (Axial Therapeutics, Inc., priority 2020, dated 2024)
# Molecular target: TLR2 (Homo sapiens, UniProt O60603)
# Assay: TLR2 agonist screening assay, HEK-Blue TLR2 reporter cell line (NF-kB-driven SEAP, absorbance at 600 nm)
# Assay type: cell-based
# Set-up: host or cells: HEK-293 (HEK-Blue TLR2 reporter cell line)
# Conditions: HEK-Blue TLR2 reporter cells, agonist mode
# Procedure, shortened: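 EC50 values come from dilution series of agonist on TLR2-transfected HEK-293 reporter cells carrying an NF-kB-SEAP construct. Cells sat overnight with compound in substrate-containing Detection medium at 1% DMSO, and secreted phosphatase activity was quantified as absorbance at 600 nm.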
# Chain of TLR2 (O60603 21-784): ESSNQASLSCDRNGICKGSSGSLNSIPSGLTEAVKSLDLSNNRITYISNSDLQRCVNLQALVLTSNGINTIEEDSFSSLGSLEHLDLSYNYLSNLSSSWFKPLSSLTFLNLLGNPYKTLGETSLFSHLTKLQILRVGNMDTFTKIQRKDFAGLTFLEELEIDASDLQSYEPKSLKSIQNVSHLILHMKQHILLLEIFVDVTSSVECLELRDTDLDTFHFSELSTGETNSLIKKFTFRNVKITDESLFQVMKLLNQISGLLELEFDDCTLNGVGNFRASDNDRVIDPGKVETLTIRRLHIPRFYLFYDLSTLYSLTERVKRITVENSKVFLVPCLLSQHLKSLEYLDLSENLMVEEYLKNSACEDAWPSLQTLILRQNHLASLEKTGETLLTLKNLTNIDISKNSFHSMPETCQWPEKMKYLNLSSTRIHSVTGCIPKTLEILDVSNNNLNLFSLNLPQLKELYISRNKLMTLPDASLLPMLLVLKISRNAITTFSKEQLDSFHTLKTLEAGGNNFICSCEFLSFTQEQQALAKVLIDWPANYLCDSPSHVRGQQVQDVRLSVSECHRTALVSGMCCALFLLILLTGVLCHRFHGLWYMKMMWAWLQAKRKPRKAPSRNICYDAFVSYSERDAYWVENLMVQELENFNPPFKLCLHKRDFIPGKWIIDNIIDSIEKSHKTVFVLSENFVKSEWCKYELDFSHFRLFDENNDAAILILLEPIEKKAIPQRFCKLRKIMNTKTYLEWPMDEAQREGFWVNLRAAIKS
EC50 (average of all runs (Table 3)) [nM],EC50 (average of all runs (Table 4)) [nM],SMILES
51 to 350,–,"CCCCCCCCNC(=O)C1CN(C(=O)c2ccc(C(=O)N3C[C@@H](C(=O)N[C@H]4C[C@@H]4c4ccccc4)[C@H](C(=O)N[C@H]4C[C@@H]4c4ccccc4)C3)cc2)CCN1C(=O)CCCCCCC (stereo partly drawn) [Compound 065, (3S,4S)-1-(4-(4-octanoyl-3-(octylcarbamoyl)piperazine-1-carbonyl)benzoyl)-N3,N4-bis((1S,2R)-2-phenylcyclopropyl)pyrrolidine-3,4-dicarboxamide]"
–,51 to 350,"CCCCCCCCCCCCCCNC(=O)[C@@H]1CN(C(=O)c2ccc(C(=O)N3C[C@@H](C(=O)N[C@H]4C[C@@H]4c4ccccc4)[C@H](C(=O)N[C@H]4C[C@@H]4c4ccccc4)C3)cc2)C[C@H]1O (single isomer, unassigned) [Compound 105, (3S,4S)-1-(4-((3R*,4S*)-3-hydroxy-4-(tetradecylcarbamoyl)pyrrolidine-1-carbonyl)benzoyl)-N3,N4-bis((1S,2R)-2-phenylcyclopropyl)pyrrolidine-3,4-dicarboxamide]"
> 1000,–,CCCCCCCC(=O)N1CCN(C(=O)c2ccc(C(=O)N3C[C@@H](C(=O)N[C@H]4C[C@@H]4c4ccccc4)[C@H](C(=O)N[C@H]4C[C@@H]4c4ccccc4)C3)cc2)CC1C(=O)N[C@H]1C[C@@H]1c1ccccc1 (some centres unmarked) [Compound 040]
–,> 1000,"CCCCCCCCCCCCCNC(=O)N[C@H]1CN(c2nc3cc(C(=O)N4C[C@@H](C(=O)N[C@H]5C[C@@H]5c5ccccc5)[C@H](C(=O)N[C@H]5C[C@@H]5c5ccccc5)C4)ccc3o2)C[C@@H]1OC [Compound 245, (3S,4S)-1-(2-((3S,4S)-3-methoxy-4-(3-tridecylureido)pyrrolidin-1-yl)benzo[d]oxazole-5-carbonyl)-N3,N4-bis((1S,2R)-2-phenylcyclopropyl)pyrrolidine-3,4-dicarboxamide]"
51 to 350,–,"CCCCCCCC(=O)N1CCN(C(=O)c2ccc(C(=O)N3C[C@@H](C(=O)N[C@H]4C[C@@H]4c4ccccc4)[C@H](C(=O)N[C@H]4C[C@@H]4c4ccccc4)C3)cc2)CC1C(=O)NCCCC (mixture of isomers) [Compound 046, (3S,4S)-1-(4-(3-(butylcarbamoyl)-4-octanoylpiperazine-1-carbonyl)benzoyl)-N3,N4-bis((1S,2R)-2-phenylcyclopropyl)pyrrolidine-3,4-dicarboxamide]"
–,> 1000,"CCCCCCCCCC(=O)N[C@@H](CNc1nc2cc(C(=O)N3C[C@@H](C(=O)N[C@H]4C[C@@H]4c4ccccc4)[C@H](C(=O)N[C@H]4C[C@@H]4c4ccccc4)C3)ccc2o1)C(=O)NCCCCCC [Compound 246, (3S,4S)-1-(2-(((S)-2-decanamido-3-(hexylamino)-3-oxopropyl)amino)benzo[d]oxazole-5-carbonyl)-N3,N4-bis((1S,2R)-2-phenylcyclopropyl)pyrrolidine-3,4-dicarboxamide]"
–,> 1000,"CCCCCCCC(=O)N1CCN(S(=O)(=O)c2cccc(C(=O)N3C[C@@H](C(=O)N[C@H]4C[C@@H]4c4ccccc4)[C@H](C(=O)N[C@H]4C[C@@H]4c4ccccc4)C3)c2)C[C@@H]1C(=O)NCCCCCC [Compound 171, (3S,4S)-1-(3-(((R)-3-(hexylcarbamoyl)-4-octanoylpiperazin-1-yl)sulfonyl)benzoyl)-N3,N4-bis((1S,2R)-2-phenylcyclopropyl)pyrrolidine-3,4-dicarboxamide]"
–,351 to 1000,"CCCCCCCCCCCCCNC(=O)N[C@H]1CN(C(=O)Nc2ccc(C(=O)N3C[C@@H](C(=O)N[C@H]4C[C@@H]4c4ccccc4)[C@H](C(=O)N[C@H]4C[C@@H]4c4ccccc4)C3)cc2)C[C@@H]1OC [Compound 238, (3S,4S)-1-(4-((3S,4S)-3-methoxy-4-(3-tridecylureido)pyrrolidine-1-carboxamido)benzoyl)-N3,N4-bis((1S,2R)-2-phenylcyclopropyl)pyrrolidine-3,4-dicarboxamide]"
–,0.1 to 50,"CCCCCCCC[C@@H]1CN(C(=O)c2ccc(C(=O)N3C[C@@H](C(=O)N[C@H]4C[C@@H]4c4ccccc4)[C@H](C(=O)N[C@H]4C[C@@H]4c4ccccc4)C3)cc2)C[C@H]1C(=O)NCCCCCC (single isomer, unassigned) [Compound 111]"
–,> 1000,"CCCCCCCCCCCCCCC(=O)N[C@H]1CCN(Cc2ccc(C(=O)N3C[C@@H](C(=O)N[C@H]4C[C@@H]4c4ccccc4)[C@H](C(=O)N[C@H]4C[C@@H]4c4ccccc4)C3)cc2)C1=O [Compound 133, (3S,4S)-1-(4-(((S)-2-oxo-3-pentadecanamidopyrrolidin-1-yl)methyl)benzoyl)-N3,N4-bis((1S,2R)-2-phenylcyclopropyl)pyrrolidine-3,4-dicarboxamide]"
–,0.1 to 50,"CCCCCCCCCCCCCNC(=O)N[C@H]1CN(c2nnc(-c3ccc(C(=O)N4C[C@@H](C(=O)N[C@H]5C[C@@H]5c5ccccc5)[C@H](C(=O)N[C@H]5C[C@@H]5c5ccccc5)C4)cc3)o2)C[C@@H]1OC [Compound 260, (3S,4S)-1-(4-(5-((3S,4S)-3-methoxy-4-(3-tridecylureido)pyrrolidin-1-yl)-1,3,4-oxadiazol-2-yl)benzoyl)-N3,N4-bis((1S,2R)-2-phenylcyclopropyl)pyrrolidine-3,4-dicarboxamide]"
–,> 1000,"CCCCCCCCCCCCCCNC(=O)[C@@H]1CN(Cc2ccc(C(=O)N3C[C@@H](C(=O)N[C@H]4C[C@@H]4c4ccccc4)[C@H](C(=O)N[C@H]4C[C@@H]4c4ccccc4)C3)cc2)CCN1C [Compound 088, (3S,4S)-1-(4-(((S)-4-methyl-3-(tetradecylcarbamoyl)piperazin-1-yl)methyl)benzoyl)-N3,N4-bis((1S,2R)-2-phenylcyclopropyl) pyrrolidine-3,4-dicarboxamide]"
–,> 1000,"CO[C@H]1CN(C(=O)c2ccc(C(=O)N3C[C@@H](C(=O)N[C@H]4C[C@@H]4c4ccccc4)[C@H](C(=O)N[C@H]4C[C@@H]4c4ccccc4)C3)cc2)C[C@@H]1NC(=O)NCCc1ccc(F)cc1 [Compound 182, (3S,4S)-1-(4-((3S,4S)-3-(3-(4-fluorophenethyl)ureido)-4-methoxypyrrolidine-1-carbonyl)benzoyl)-N3,N4-bis((1S,2R)-2-phenylcyclopropyl)pyrrolidine-3,4-dicarboxamide]"
–,0.1 to 50,"O=C(N[C@H]1C[C@@H]1c1ccccc1)[C@@H]1CN(C(=O)c2ccc(C(=O)N3C[C@@H](C(=O)N[C@H]4C[C@@H]4c4ccccc4)[C@H](C(=O)N[C@H]4C[C@@H]4c4cccnc4)C3)cc2)C[C@H]1C(=O)N[C@H]1C[C@@H]1c1ccccc1 (relative stereo) [Compound 096, (3S,4S)—N3-((1S)-2-phenylcyclopropyl)-N4-(2-phenylcyclopropyl)-1-(4-((3S,4S)-3-(((1S,2R)-2-phenylcyclopropyl)carbamoyl)-4-(((1S*,2R*)-2-(pyridin-3-yl)cyclopropyl)carbamoyl)pyrrolidine-1-carbonyl)benzoyl)pyrrolidine-3,4-dicarboxamide]"
–,351 to 1000,"O=C(N[C@H]1C[C@@H]1c1ccccc1)[C@@H]1CN(C(=O)C23CCC(C(=O)N4C[C@@H](C(=O)N[C@H]5C[C@@H]5c5ccccc5)[C@H](C(=O)N[C@H]5C[C@@H]5c5ccccc5)C4)(C2)C3)C[C@H]1C(=O)N[C@H]1C[C@@H]1c1ccccc1 [Compound 144, (3S,3'S,4S,4'S)-1,1′-(bicyclo[2.1.1]hexane-1,4-dicarbonyl)bis(N3,N4-bis((1S,2R)-2-phenylcyclopropyl)pyrrolidine-3,4-dicarboxamide)]"
–,> 1000,"CCCCCCCC(=O)N1CCN(Cc2ccc(C(=O)N3C[C@@H](C(=O)N[C@H]4C[C@@H]4c4ccccc4)[C@H](C(=O)N[C@H]4C[C@@H]4c4ccccc4)C3)cc2)C[C@H]1C(=O)NCCCCCC [Compound 122, (3S,4S)-1-(4-(((S)-3-(hexylcarbamoyl)-4-octanoylpiperazin-1-yl)methyl)benzoyl)-N3,N4-bis((1S,2R)-2-phenylcyclopropyl) pyrrolidine-3,4-dicarboxamide]"
51 to 350,–,"CCCCCCCCCCNC(=O)C1CN(C(=O)c2ccc(C(=O)N3C[C@@H](C(=O)N[C@H]4C[C@@H]4c4ccccc4)[C@H](C(=O)N[C@H]4C[C@@H]4c4ccccc4)C3)cc2)CCN1C(=O)CCCCCCC (stereo partly drawn) [Compound 066, (3S,4S)-1-(4-(3-(decylcarbamoyl)-4-octanoylpiperazine-1-carbonyl)benzoyl)-N3,N4-bis((1S,2R)-2-phenylcyclopropyl)pyrrolidine-3,4-dicarboxamide]"
–,51 to 350,"CCCCCCCC(=O)N1CCCN(S(=O)(=O)c2ccc(C(=O)N3C[C@@H](C(=O)N[C@H]4C[C@@H]4c4ccccc4)[C@H](C(=O)N[C@H]4C[C@@H]4c4ccccc4)C3)cc2)CC1C(=O)NCCCCCC (single isomer, unassigned) [Compound 202, (3S,4S)-1-(4-(((S*)-3-(hexylcarbamoyl)-4-octanoyl-1,4-diazepan-1-yl)sulfonyl)benzoyl)-N3,N4-bis((1S,2R)-2-phenylcyclopropyl)pyrrolidine-3,4-dicarboxamide]"
51 to 350,–,"CCCCCCCCCCCC(=O)N1CCN(C(=O)c2ccc(C(=O)N3C[C@@H](C(=O)N[C@H]4C[C@@H]4c4ccccc4)[C@H](C(=O)N[C@H]4C[C@@H]4c4ccccc4)C3)cc2)CC1C(=O)NCCCCCC (stereo partly drawn) [Compound 057, (3S,4S)-1-(4-(4-dodecanoyl-3-(hexylcarbamoyl)piperazine-1-carbonyl)benzoyl)-N3,N4-bis((1S,2R)-2-phenylcyclopropyl)pyrrolidine-3,4-dicarboxamide]"
–,> 1000,"CCCCCCCCCCCCCCN1C(=O)CNC(=O)[C@@H]1CNC(=O)c1ccc(C(=O)N2C[C@@H](C(=O)N[C@H]3C[C@@H]3c3ccccc3)[C@H](C(=O)N[C@H]3C[C@@H]3c3ccccc3)C2)cc1 [Compound 147, (3S,4S)-1-(4-((((S)-3,6-dioxo-1-tetradecylpiperazin-2-yl)methyl)carbamoyl)benzoyl)-N3,N4-bis((1S,2R)-2-phenylcyclopropyl)pyrrolidine-3,4-dicarboxamide]"
